In article PMC5218480 (PLoS ONE, 2017):

Test system: MV-4-11 cells
Assay: Gene expression microarray analysis (Affymetrix PrimeView) and GSEA
Type: cell-based, human
Design: RFU PODN (11730768_x_at) / Fold change /veh PODN (11730768_x_at) / RFU LINC00158 (11744669_a_at) / Fold change /veh LINC00158 (11744669_a_at) / RFU DUSP10 (11751237_a_at) / Fold change /veh DUSP10 (11751237_a_at) / RFU ID3 (11757404_x_at) / Fold change /veh ID3 (11757404_x_at) / RFU PLEKHG5 (11737974_s_at) / Fold change /veh PLEKHG5 (11737974_s_at) / RFU LRRC4B (11730491_at) / Fold change /veh LRRC4B (11730491_at) / RFU GIMAP4 (11747438_a_at) / Fold change /veh GIMAP4 (11747438_a_at) / RFU KRT8 (11758183_x_at) / Fold change /veh KRT8 (11758183_x_at) / RFU CNN1 (11734310_a_at) / Fold change /veh CNN1 (11734310_a_at) / RFU VPS37D (11726825_at) / Fold change /veh VPS37D (11726825_at) / RFU C10orf10 (11716522_x_at) / Fold change /veh C10orf10 (11716522_x_at) / RFU KIR2DL2 /// KIR2DL4 /// KIR2DL5A /// KIR2DL5B /// KIR2DS1 /// KIR2DS2 /// KIR2DS3 /// KIR2DS4 /// KIR3DL3 /// KIR3DL3 /// KIR3DS1 (11738374_at) / Fold change /veh KIR2DL2 /// KIR2DL4 /// KIR2DL5A /// KIR2DL5B /// KIR2DS1 /// KIR2DS2 /// KIR2DS3 /// KIR2DS4 /// KIR3DL3 /// KIR3DL3 /// KIR3DS1 (11738374_at) / RFU C1QL1 (11718748_at) / Fold change /veh C1QL1 (11718748_at) / RFU TMPRSS4 (11747572_a_at) / Fold change /veh TMPRSS4 (11747572_a_at) / RFU HAMP (11756126_x_at) / Fold change /veh HAMP (11756126_x_at) / RFU RNFT2 (11725882_a_at) / Fold change /veh RNFT2 (11725882_a_at) / RFU NR4A2 (11747474_a_at) / Fold change /veh NR4A2 (11747474_a_at) / RFU ABCC12 (11746883_a_at) / Fold change /veh ABCC12 (11746883_a_at) / RFU TMEM136 (11760407_x_at) / Fold change /veh TMEM136 (11760407_x_at) / RFU CLDN22 /// WWC2 (11732394_at) / Fold change /veh CLDN22 /// WWC2 (11732394_at) / RFU HLA-DPB1 (11760878_x_at) / Fold change /veh HLA-DPB1 (11760878_x_at) / RFU SPINT1 (11716480_a_at) / Fold change /veh SPINT1 (11716480_a_at) / RFU GAP43 (11754022_s_at) / Fold change /veh GAP43 (11754022_s_at) / RFU A4GNT (11735810_at) / Fold change /veh A4GNT (11735810_at) / RFU PRB3 (11715151_x_at) / Fold change /veh PRB3 (11715151_x_at) / RFU TUBB4B (11761932_at) / Fold change /veh TUBB4B (11761932_at) / RFU CAPN14 (11732068_a_at) / Fold change /veh CAPN14 (11732068_a_at) / RFU TMCC2 (11721928_a_at) / Fold change /veh TMCC2 (11721928_a_at) / RFU IRGQ (11745062_a_at) / Fold change /veh IRGQ (11745062_a_at) / RFU FAM174B (11720279_a_at) / Fold change /veh FAM174B (11720279_a_at) / RFU TMPRSS4 (11748680_a_at) / Fold change /veh TMPRSS4 (11748680_a_at) / RFU FAM212B (11763350_a_at) / Fold change /veh FAM212B (11763350_a_at) / RFU PLEKHG5 (11743358_a_at) / Fold change /veh PLEKHG5 (11743358_a_at) / RFU ZSCAN30 (11745921_a_at) / Fold change /veh ZSCAN30 (11745921_a_at) / RFU CMKLR1 (11741424_a_at) / Fold change /veh CMKLR1 (11741424_a_at) / RFU LOC101060620 /// MAPK8IP1 (11723275_at) / Fold change /veh LOC101060620 /// MAPK8IP1 (11723275_at) / RFU SPTSSB (11747773_x_at) / Fold change /veh SPTSSB (11747773_x_at) / RFU PRSS12 (11739890_at) / Fold change /veh PRSS12 (11739890_at) / RFU BIN1 (11741810_x_at) / Fold change /veh BIN1 (11741810_x_at) / RFU WNT11 (11732464_a_at) / Fold change /veh WNT11 (11732464_a_at) / RFU C10orf10 (11716521_a_at) / Fold change /veh C10orf10 (11716521_a_at) / RFU C5orf56 (11738089_at) / Fold change /veh C5orf56 (11738089_at) / RFU CYB561 (11721691_x_at) / Fold change /veh CYB561 (11721691_x_at) / RFU ANKRD19P (11752326_a_at) / Fold change /veh ANKRD19P (11752326_a_at) / RFU OR2T12 /// OR2T33 /// OR2T8 (11738714_s_at) / Fold change /veh OR2T12 /// OR2T33 /// OR2T8 (11738714_s_at) / RFU VCAN (11748164_a_at) / Fold change /veh VCAN (11748164_a_at) / RFU JSRP1 (11732532_at) / Fold change /veh JSRP1 (11732532_at) / RFU KRTAP10-11 (11738290_x_at) / Fold change /veh KRTAP10-11 (11738290_x_at) / RFU MYO3A (11730013_a_at) / Fold change /veh MYO3A (11730013_a_at) / RFU EBF3 (11725865_a_at) / Fold change /veh EBF3 (11725865_a_at) / RFU CAMK2N1 (11719241_x_at) / Fold change /veh CAMK2N1 (11719241_x_at) / RFU C5orf56 (11738088_a_at) / Fold change /veh C5orf56 (11738088_a_at) / RFU OLFML3 (11715873_a_at) / Fold change /veh OLFML3 (11715873_a_at) / RFU LOC100653217 /// NTM (11731650_a_at) / Fold change /veh LOC100653217 /// NTM (11731650_a_at) / RFU MAPK11 (11762145_a_at) / Fold change /veh MAPK11 (11762145_a_at) / RFU FIZ1 (11724087_x_at) / Fold change /veh FIZ1 (11724087_x_at) / RFU OASL (11726364_x_at) / Fold change /veh OASL (11726364_x_at) / RFU SOX15 (11748057_x_at) / Fold change /veh SOX15 (11748057_x_at) / RFU CD79A (11719716_a_at) / Fold change /veh CD79A (11719716_a_at) / RFU HIST1H1D (11736915_at) / Fold change /veh HIST1H1D (11736915_at) / RFU CASKIN2 (11723855_a_at) / Fold change /veh CASKIN2 (11723855_a_at) / RFU LOC730098 (11760151_x_at) / Fold change /veh LOC730098 (11760151_x_at) / RFU OR4N2 (11742367_at) / Fold change /veh OR4N2 (11742367_at) / RFU PRRT2 (11749266_a_at) / Fold change /veh PRRT2 (11749266_a_at) / RFU SNX32 (11753110_a_at) / Fold change /veh SNX32 (11753110_a_at) / RFU CDHR5 (11726645_a_at) / Fold change /veh CDHR5 (11726645_a_at) / RFU RCAN1 (11760418_a_at) / Fold change /veh RCAN1 (11760418_a_at) / RFU FAM167A (11723789_a_at) / Fold change /veh FAM167A (11723789_a_at) / RFU FAM26E (11764081_at) / Fold change /veh FAM26E (11764081_at) / RFU ISYNA1 (11749810_s_at) / Fold change /veh ISYNA1 (11749810_s_at) / RFU ACY1 (11761880_at) / Fold change /veh ACY1 (11761880_at) / RFU 11764098_at / Fold change /veh 11764098_at / RFU SAMD14 (11745864_x_at) / Fold change /veh SAMD14 (11745864_x_at) / RFU NPB (11741838_a_at) / Fold change /veh NPB (11741838_a_at) / RFU TMPRSS6 (11731388_a_at) / Fold change /veh TMPRSS6 (11731388_a_at) / RFU KRTAP10-2 (11738614_at) / Fold change /veh KRTAP10-2 (11738614_at) / RFU ARHGAP8 /// PRR5-ARHGAP8 (11727945_x_at) / Fold change /veh ARHGAP8 /// PRR5-ARHGAP8 (11727945_x_at) / RFU KRTAP5-7 /// NADSYN1 (11734609_at) / Fold change /veh KRTAP5-7 /// NADSYN1 (11734609_at) / RFU RASL12 (11751679_a_at) / Fold change /veh RASL12 (11751679_a_at) / RFU CDKN2B (11736163_a_at) / Fold change /veh CDKN2B (11736163_a_at) / RFU PRF1 (11729649_at) / Fold change /veh PRF1 (11729649_at) / RFU, ZNF638 /// ZNF638-IT1 / Fold change vs veh, ZNF638 /// ZNF638-IT1 / RFU, PANK3 / Fold change vs veh, PANK3 / RFU, SH3YL1 / Fold change vs veh, SH3YL1 / RFU, ZEB2 / Fold change vs veh, ZEB2 / RFU, NRIP1 / Fold change vs veh, NRIP1 / RFU, PTTG1IP / Fold change vs veh, PTTG1IP / RFU, CAPN2 / Fold change vs veh, CAPN2 / RFU, MED14 / Fold change vs veh, MED14 / RFU, SNORA58 / Fold change vs veh, SNORA58 / RFU, C1orf63 / Fold change vs veh, C1orf63 / RFU, LRRFIP1 / Fold change vs veh, LRRFIP1 / RFU, NDUFAF7 / Fold change vs veh, NDUFAF7 / RFU, SLC12A2 / Fold change vs veh, SLC12A2 / RFU, IBTK / Fold change vs veh, IBTK / RFU, ESF1 / Fold change vs veh, ESF1 / Fold change vs veh, TMEM50B / RFU, TAOK1 / Fold change vs veh, TAOK1 / RFU, ACBD3 / Fold change vs veh, ACBD3 / RFU, TMA16 / Fold change vs veh, TMA16 / RFU, RWDD3 / Fold change vs veh, RWDD3 / RFU, BCAT1 / Fold change vs veh, BCAT1 / RFU, EDEM3 / Fold change vs veh, EDEM3 / RFU, TMEM33 / Fold change vs veh, TMEM33 / RFU, WDR75 / Fold change vs veh, WDR75 / RFU, AHCTF1 / Fold change vs veh, AHCTF1 / RFU, TFRC / Fold change vs veh, TFRC / RFU, ZDHHC17 / Fold change vs veh, ZDHHC17 / RFU, NOM1 / Fold change vs veh, NOM1 / RFU, ARL8B / Fold change vs veh, ARL8B / RFU, ZBTB11 / Fold change vs veh, ZBTB11 / RFU, TAMM41 / Fold change vs veh, TAMM41 / RFU, KIAA1704 /// LOC100996395 / Fold change vs veh, KIAA1704 /// LOC100996395 / RFU, ING1 / Fold change vs veh, ING1 / RFU, TRMT61B / Fold change vs veh, TRMT61B / RFU, FUBP3 / Fold change vs veh, FUBP3 / RFU, TP53 / Fold change vs veh, TP53 / RFU, TNKS2 / Fold change vs veh, TNKS2 / RFU, ZFP14 / Fold change vs veh, ZFP14 / RFU, ACTR2 / Fold change vs veh, ACTR2 / RFU, PPP3R1 / Fold change vs veh, PPP3R1 / RFU, PIK3R1 / Fold change vs veh, PIK3R1 / RFU, HNRNPA1 / Fold change vs veh, HNRNPA1 / RFU, RNF170 / Fold change vs veh, RNF170 / RFU, ZNF28 / Fold change vs veh, ZNF28 / RFU, RNGTT / Fold change vs veh, RNGTT / RFU, OGT / Fold change vs veh, OGT / RFU, BRD1 / Fold change vs veh, BRD1 / RFU, MARS / Fold change vs veh, MARS / RFU, ZNF655 / Fold change vs veh, ZNF655 / RFU, FAHD1 / Fold change vs veh, FAHD1 / RFU, BDP1 / Fold change vs veh, BDP1 / RFU, LRRCC1 / Fold change vs veh, LRRCC1 / RFU, ARID1A / Fold change vs veh, ARID1A / RFU, ZNF146 / Fold change vs veh, ZNF146 / RFU, ZNF330 / Fold change vs veh, ZNF330 / RFU, GPN3 / Fold change vs veh, GPN3 / RFU, C9orf123 / Fold change vs veh, C9orf123 / RFU, N4BP2L2 / Fold change vs veh, N4BP2L2 / RFU, ARFIP1 / Fold change vs veh, ARFIP1 / RFU, FAM179B / Fold change vs veh, FAM179B / RFU, BCL10 / Fold change vs veh, BCL10 / RFU, UHRF1BP1L / Fold change vs veh, UHRF1BP1L / RFU, BET1 / Fold change vs veh, BET1 / RFU, CNOT2 / Fold change vs veh, CNOT2 / RFU, ZNF268 / Fold change vs veh, ZNF268 / Fold change vs veh, ZNF507 / RFU, DGCR2 / Fold change vs veh, DGCR2 / RFU, WDSUB1 / Fold change vs veh, WDSUB1 / Fold change vs veh, HSP90B1 /// MIR3652 / RFU, ADSS / Fold change vs veh, ADSS / RFU, GK / Fold change vs veh, GK / RFU, ZNF148 / Fold change vs veh, ZNF148 / RFU, TAF9 / Fold change vs veh, TAF9 / RFU, SLC1A5 / Fold change vs veh, SLC1A5 / RFU, SLMO2 / Fold change vs veh, SLMO2 / RFU, ABCC4 / Fold change vs veh, ABCC4 / RFU, LOC101060439 /// RAP1B / Fold change vs veh, LOC101060439 /// RAP1B / RFU, RFX7 / Fold change vs veh, RFX7 / RFU, GTPBP10 / Fold change vs veh, GTPBP10 / RFU, CNEP1R1 / Fold change vs veh, CNEP1R1 / RFU, BIVM-ERCC5 /// ERCC5 / Fold change vs veh, BIVM-ERCC5 /// ERCC5 / RFU, ILF3 / Fold change vs veh, ILF3 / RFU 11762660_at / Fold change /veh 11762660_at / RFU VCAN (11757783_s_at) / Fold change /veh VCAN (11757783_s_at) / RFU DDX43 (11728927_at) / Fold change /veh DDX43 (11728927_at) / RFU KRT8 (11758188_x_at) / Fold change /veh KRT8 (11758188_x_at) / RFU NKD1 (11759106_at) / Fold change /veh NKD1 (11759106_at) / RFU SRD5A1 (11742802_a_at) / Fold change /veh SRD5A1 (11742802_a_at) / RFU TPSAB1 /// TPSB2 (11721975_s_at) / Fold change /veh TPSAB1 /// TPSB2 (11721975_s_at) / RFU GSTM3 (11746129_a_at) / Fold change /veh GSTM3 (11746129_a_at) / RFU IL23R (11737362_x_at) / Fold change /veh IL23R (11737362_x_at) / RFU TMEM51 (11727254_a_at) / Fold change /veh TMEM51 (11727254_a_at) / RFU PIWIL2 (11732686_x_at) / Fold change /veh PIWIL2 (11732686_x_at) / RFU ORM1 (11744905_x_at) / Fold change /veh ORM1 (11744905_x_at) / RFU CCDC152 (11743942_at) / Fold change /veh CCDC152 (11743942_at) / RFU ECM1 (11717891_a_at) / Fold change /veh ECM1 (11717891_a_at) / RFU IL23R (11748794_a_at) / Fold change /veh IL23R (11748794_a_at) / RFU TNFAIP8L3 (11732012_x_at) / Fold change /veh TNFAIP8L3 (11732012_x_at) / RFU MBOAT4 (11741988_at) / Fold change /veh MBOAT4 (11741988_at) / RFU 11764193_at / Fold change /veh 11764193_at / RFU TMEM53 (11763286_at) / Fold change /veh TMEM53 (11763286_at) / RFU MAGEB2 (11727129_at) / Fold change /veh MAGEB2 (11727129_at) / RFU TMEM200A (11744735_a_at) / Fold change /veh TMEM200A (11744735_a_at) / RFU CCDC152 (11751479_a_at) / Fold change /veh CCDC152 (11751479_a_at) / RFU FAM211A (11726209_a_at) / Fold change /veh FAM211A (11726209_a_at) / RFU RGS16 (11746705_a_at) / Fold change /veh RGS16 (11746705_a_at) / RFU VCAN (11755009_s_at) / Fold change /veh VCAN (11755009_s_at) / RFU RHOB (11743442_s_at) / Fold change /veh RHOB (11743442_s_at) / RFU RGS16 (11720943_a_at) / Fold change /veh RGS16 (11720943_a_at) / RFU RGS16 (11720944_at) / Fold change /veh RGS16 (11720944_at) / RFU, VPS4B / Fold change vs veh, VPS4B / RFU, CREB1 / Fold change vs veh, CREB1 / RFU, DNAJC13 / Fold change vs veh, DNAJC13 / RFU, GNAQ / Fold change vs veh, GNAQ / RFU, CDK5R1 / Fold change vs veh, CDK5R1 / RFU, ZRANB3 / Fold change vs veh, ZRANB3 / RFU, CUL4A / Fold change vs veh, CUL4A / RFU, CCNY / Fold change vs veh, CCNY / RFU, UFL1 / Fold change vs veh, UFL1 / RFU, COG3 / Fold change vs veh, COG3 / RFU, DIAPH2 / Fold change vs veh, DIAPH2 / RFU, SKA2 / Fold change vs veh, SKA2 / RFU, AFF3 / Fold change vs veh, AFF3 / RFU, LMF1 / Fold change vs veh, LMF1 / RFU, IPO11 / Fold change vs veh, IPO11 / RFU, DFFB / Fold change vs veh, DFFB / RFU, FOXP1 / Fold change vs veh, FOXP1 / RFU, CARD8 / Fold change vs veh, CARD8 / RFU, STRN3 / Fold change vs veh, STRN3 / RFU, ADK / Fold change vs veh, ADK / RFU, RASSF2 / Fold change vs veh, RASSF2 / RFU, WIPF1 / Fold change vs veh, WIPF1 / RFU, LARP1B / Fold change vs veh, LARP1B / RFU, RASA1 / Fold change vs veh, RASA1 / RFU, RB1 / Fold change vs veh, RB1 / RFU, PPFIA1 / Fold change vs veh, PPFIA1 / RFU, MAT2A / Fold change vs veh, MAT2A / RFU, CCT5 / Fold change vs veh, CCT5 / RFU, WDR92 / Fold change vs veh, WDR92 / RFU, CUX1 / Fold change vs veh, CUX1 / RFU, TTC7A / Fold change vs veh, TTC7A / RFU, TMEM135 / Fold change vs veh, TMEM135 / RFU, DEPTOR / Fold change vs veh, DEPTOR / RFU, CPM / Fold change vs veh, CPM / RFU, DNAJB6 / Fold change vs veh, DNAJB6 / RFU, CACNA2D3 / Fold change vs veh, CACNA2D3 / RFU, DTX4 / Fold change vs veh, DTX4 / RFU, TFCP2 / Fold change vs veh, TFCP2 / RFU, GMCL1 /// GMCL1P1 / Fold change vs veh, GMCL1 /// GMCL1P1 / RFU, AEBP2 / Fold change vs veh, AEBP2 / RFU, SNHG1 /// SNORD22 /// SNORD25 /// SNORD26 /// SNORD27 /// SNORD28 /// SNORD29 /// SNORD31 / Fold change vs veh, SNHG1 /// SNORD22 /// SNORD25 /// SNORD26 /// SNORD27 /// SNORD28 /// SNORD29 /// SNORD31 / Fold change (Aza/veh), C12orf56 (ProbeSet 11735607_a_at) / Fold change (ACY-1035/veh), C12orf56 (ProbeSet 11735607_a_at) / Fold change (Aza/veh), FGFR1OP (ProbeSet 11751329_s_at) / Fold change (ACY-1035/veh), FGFR1OP (ProbeSet 11751329_s_at) / Fold change (Aza/veh), VPS36 (ProbeSet 11739960_a_at) / Fold change (ACY-1035/veh), VPS36 (ProbeSet 11739960_a_at) / RFU SYPL1 (11715823_x_at) / Fold change /veh SYPL1 (11715823_x_at) / RFU IGFBP7 (11715501_s_at) / Fold change /veh IGFBP7 (11715501_s_at) / RFU REEP3 (11722064_at) / Fold change /veh REEP3 (11722064_at) / RFU IGLL1 (11728026_x_at) / Fold change /veh IGLL1 (11728026_x_at): dose or concentration left out as unconfirmed
Conditions: ProbeSet 11725217_a_at; LIST B

Nc1ncn([C@@H]2O[C@H](CO)[C@@H](O)[C@H]2O)c(=O)n1 [azacitidine]
RFU, WDSUB1: 50.65 RFU
